The record followed here is US10793557B2, “Sting agonist compounds” (Merck Sharp & Dohme Corp., priority 2018, dated 2020).

Test [1] addresses T1, full-length WT STING (Homo sapiens, UniProt Q86WV6, H232R).
T1 construct: AviTag (after gg linker) (C); HRV3C cleavage site (after gs linker) (C); HIS8 (C); made in house; host or cells: Trichoplusia ni (Hi-Five) insect cells infected with baculovirus (virus generated and amplified in Sf21 cells); used as a washed membrane preparation
In words: 3H-cGAMP filtration binding assay (WT STING). As to conditions: for EC50: competition with tritiated cGAMP, WT STING membrane. The method, boiled down:
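EC50 values come from 4-parameter fits of remaining filter-bound tritium versus log concentration (10-point, 1:3 dilution). Insect-cell membranes carrying full-length WT STING were incubated 60 min at RT with compound and tritiated cGAMP (16 nM working stock) before filtration.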

The target in test [2] is T2, full-length HAQ STING (Homo sapiens, UniProt Q86WV6, G230A/H232R/R293Q/R71H).
T2 construct: AviTag (after GG linker) (C); HRV3C cleavage site (after GS linker) (C); HIS8 (C); made in house; host or cells: Trichoplusia ni (Hi-Five) insect cells infected with baculovirus (virus generated and amplified in Sf21 cells); used as a washed membrane preparation
In words: 3H-cGAMP filtration binding assay (HAQ STING). As to conditions: competition with tritiated cGAMP, HAQ STING membrane. In outline: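 Hi-Five (T. ni) membranes overexpressing the STING variant (2.2 ug/ml working) preincubated with compound 60 min at RT in PBS, then [3H]cGAMP (8 nM working stock) added for 60 min at RT. Bound radioactivity captured on GF/B filters and counted by scintillation; EC50 from 4-parameter fit of control-normalized activity.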

Test [3] concerns secretion of interferon-beta from THP1 cells. In words: IFN-β secretion in THP1 cell culture (5 h). The class given is cell-based. Particulars: Homo sapiens, THP-1, 5 h, 30 uM cGAMP = 100%; for activation at 3 µM: compound at 3 uM, read-out: % Effect relative to 2′3′-cGAMP (@ 3 uM). In outline: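 IFN-β in supernatant measured by AlphaLISA after a 5 h, 37 °C incubation of THP1 cells with compound (10 concentrations, 30000 down to 1.5 nM, 0.3% DMSO) in low-serum RPMI. Values scaled between DMSO and 30 uM cGAMP controls; 4-parameter curve fit yields EC50.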

T2 sequence (Q86WV6 with tags, fused parts or gaps R71H/G230A/H232R/R293Q): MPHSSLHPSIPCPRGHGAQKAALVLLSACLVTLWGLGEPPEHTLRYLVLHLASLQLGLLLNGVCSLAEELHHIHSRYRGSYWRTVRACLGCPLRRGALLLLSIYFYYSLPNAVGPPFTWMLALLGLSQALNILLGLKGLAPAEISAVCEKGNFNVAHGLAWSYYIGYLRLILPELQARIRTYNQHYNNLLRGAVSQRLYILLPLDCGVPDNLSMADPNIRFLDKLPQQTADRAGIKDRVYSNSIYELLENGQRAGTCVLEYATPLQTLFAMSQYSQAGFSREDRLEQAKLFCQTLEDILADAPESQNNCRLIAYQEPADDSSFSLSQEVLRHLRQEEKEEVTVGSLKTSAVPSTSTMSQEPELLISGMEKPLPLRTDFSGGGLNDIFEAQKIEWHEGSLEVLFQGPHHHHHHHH
T1 sequence (Q86WV6 with tags, fused parts or gaps H232R): as the sequence (Q86WV6 with tags, fused parts or gaps R71H/G230A/H232R/R293Q) above, with H71R, A230G, Q293R counted along it

As for `COc1cc2sc(C(=O)C[C@H](C)C(=O)O)cc2cc1OCCCOc1c(OC)cc2sc(C(=O)C[C@H](C)C(=O)NS(C)(=O)=O)cc2c1F` [Example 179, (S)-4-(5-(3-((4-fluoro-6-methoxy-2-((S)-3-methyl-4-(methylsulfonamido)-4-oxobutanoyl)-benzo[b]thiophen-5-yl)oxy)propoxy)-6-methoxybenzo[b]thiophen-2-yl)-2-methyl-4-oxobutanoic acid], the EC50 in test [1] and in test [2] was 1 nM throughout. The activation at 30 µM in test [3] (compound at 30 μM, read-out: % Effect at 30 μM relative to 2′3′-cGAMP) was 79%.
In the case of `COc1cc2sc(C(=O)C[C@H](C)C(=O)O)cc2c(F)c1OCCCOc1cc2cc(C(=O)C[C@H](C)C(=O)O)sc2cc1O` [Example 180, (S)-4-(5-(3-((2-((S)-3-Carboxybutanoyl)-4-fluoro-6-methoxybenzo[b]thiophen-5-yl)oxy)propoxy)-6-hydroxybenzo [b]thiophen-2-yl)-2-methyl-4-oxobutanoic acid], the half-maximal effective concentration (EC50) in test [1] and in test [2] was 1 nM each time. For the same compound, in test [3], the activation at 3 µM is 121%.
For the compound `COc1cc2sc(CC[C@H](C)C(=O)O)cc2c(F)c1OCCCOc1cc2cc(C(=O)C[C@H](C)C(=O)O)sc2cc1O` [Example 181, (S)-4-(5-(3-((2-((S)-3-carboxybutyl)-4-fluoro-6-methoxybenzo[b]thiophen-5-yl)oxy)propoxy)-6-hydroxybenzo[b]thiophen-2-yl)-2-methyl-4-oxobutanoic acid], the EC50 in test [1] was 177 nM; in test [2] it was 5 nM. In addition, in test [3], the activation at 3 µM was determined as 104%.
With `COc1cc2sc(C(=O)C[C@H](C)C(=O)O)cc2c(Cl)c1OCCCOc1cc2cc(C(=O)C[C@H](C)C(=O)O)sc2cc1O` [Example 182, (S)-4-(5-(3-((2-((S)-3-carboxybutanoyl)-4-chloro-6-methoxybenzo[b]thiophen-5-yl)oxy)propoxy)-6-hydroxybenzo[b]thiophen-2-yl)-2-methyl-4-oxobutanoic acid], the EC50 in test [1] came out at 2 nM; in test [2] it was 1 nM. Further, the activation at 3 µM in test [3] is 147%.
Taken in the same sequence, the figures for `COc1cc2sc(C(=O)C[C@H](C)C(=O)O)cc2cc1OCCCOc1c(O)cc2sc(C(=O)C[C@H](C)C(=O)O)cc2c1Cl` [Example 183, (S)-4-(5-(3-((2-((S)-3-carboxybutanoyl)-4-chloro-6-hydroxybenzo[b]thiophen-5-yl)oxy)propoxy)-6-methoxybenzo[b]thiophen-2-yl)-2-methyl-4-oxobutanoic acid] were 3 nM, 1 nM and 127%.
In test [1] (at 2,000 nM compound), `COc1cc2sc(CC[C@H](C)C(=O)O)cc2cc1OCCCOc1c(O)cc2sc(C(=O)C[C@H](C)C(=O)O)cc2c1Cl` [Example 184, (S)-4-(5-(3-((2-((S)-3-carboxybutyl)-6-methoxybenzo[b]thiophen-5-yl)oxy)propoxy)-4-chloro-6-hydroxybenzo[b]thiophen-2-yl)-2-methyl-4-oxobutanoic acid] displayed an inhibition at 2 µM of 29%. The compound further yielded a 50% effective concentration (EC50) in test [2] of 353 nM. Further, the activation at 3 µM in test [3] amounted to 10%.
Consider `COc1cc2sc(C(=O)C[C@H](C)C(=O)O)cc2c(F)c1OCCCOc1c(O)cc2sc(C(=O)C[C@H](C)C(=O)O)cc2c1Cl` [Example 185, (S)-4-(5-(3-((2-((S)-3-carboxybutanoyl)-4-chloro-6-hydroxybenzo[b]thiophen-5-yl)oxy)propoxy)-4-fluoro-6-methoxybenzo[b]thiophen-2-yl)-2-methyl-4-oxobutanoic acid], for which the EC50 in test [1] and in test [2] was 1 nM in each case. In test [3], the activation at 3 µM was 122%.
For `COc1cc2sc(CC[C@H](C)C(=O)O)cc2c(F)c1OCCCOc1c(O)cc2sc(C(=O)C[C@H](C)C(=O)O)cc2c1Cl` [Example 186, (S)-4-(5-(3-((2-((S)-3-carboxybutyl)-4-fluoro-6-methoxybenzo[b]thiophen-5-yl)oxy)propoxy)-4-chloro-6-hydroxybenzo[b]thiophen-2-yl)-2-methyl-4-oxobutanoic acid], the EC50 is 756 nM in test [1] and 133 nM in test [2]. In test [3], the activation at 3 µM is 56%.
Taken in the same sequence, the figures for `COc1cc2sc(C(=O)C[C@H](C)C(=O)O)cc2c(Cl)c1OCCCOc1c(O)cc2sc(C(=O)C[C@H](C)C(=O)O)cc2c1Cl` [Example 187, (S)-4-(5-(3-((2-((S)-3-carboxybutanoyl)-4-chloro-6-hydroxybenzo[b]thiophen-5-yl)oxy)propoxy)-4-chloro-6-methoxybenzo[b]thiophen-2-yl)-2-methyl-4-oxobutanoic acid] were 46 nM, 4 nM and 128%.
Taken in the same sequence, the figures for `COc1cc2sc(C(=O)C[C@H](C)C(=O)O)cc2c(F)c1OCCCOc1c(O)cc2sc(C(=O)C[C@H](C)C(=O)O)cc2c1F` [Example 188, (S)-4-(5-(3-((2-((S)-3-carboxybutanoyl)-4-fluoro-6-hydroxybenzo[b]thiophen-5-yl)oxy)propoxy)-4-fluoro-6-methoxybenzo[b]thiophen-2-yl)-2-methyl-4-oxobutanoic acid] were 1 nM, 1 nM and 104%.
Consider `COc1cc2sc(C(=O)C[C@H](C)C(=O)O)cc2cc1OCCCOc1c(O)cc2sc(C(=O)C[C@H](C)C(=O)O)cc2c1F` [Example 189, (S)-4-(5-(3-((2-((S)-3-carboxybutanoyl)-4-fluoro-6-hydroxybenzo[b]thiophen-5-yl)oxy)propoxy)-6-methoxybenzo[b]thiophen-2-yl)-2-methyl-4-oxobutanoic acid], for which the EC50 in test [1] is 2 nM; in test [2], 1 nM. In addition, the activation at 3 µM in test [3] came out at 111%.
The corresponding values for `COc1cc2sc(C(=O)C[C@H](C)C(=O)O)cc2c(Cl)c1OCCCOc1c(O)cc2sc(C(=O)C[C@H](C)C(=O)O)cc2c1F` [Example 190, (S)-4-(5-(3-((2-((S)-3-carboxybutanoyl)-4-chloro-6-methoxybenzo[b]thiophen-5-yl)oxy)propoxy)-4-fluoro-6-hydroxybenzo[b]thiophen-2-yl)-2-methyl-4-oxobutanoic acid] are 2 nM, 1 nM and 126%.
